Experimental data from ChEMBL document CHEMBL1201862, “PubChem BioAssay data set” (2004).
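Test compounds were applied to cells in 96-well plates for 48 hours at 5 doses. Here, GI50 denotes the concentration required for 50% inhibition of growth.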 Activity calls are given as the source filed them. Rule as the data show it: active = GI50 up to about 1.1 µM and inactive = higher.

Assays:
Test in all cases: NCI anticancer screen, dose series, 48 h
NCI-H23 = test system: NCI-H23
SNB-75 = test system: SNB-75
COLO 205 = test system: COLO 205
TK-10 = test system: TK-10
SF-295 = test system: SF-295
SK-OV-3 = test system: SK-OV-3
UO-31 = test system: UO-31
IGROV-1 = test system: IGROV-1
NCI-H226 = test system: NCI-H226
SK-MEL-2 = test system: SK-MEL-2
SN12C = test system: SN12C
M14 = test system: M14
SF-539 = test system: SF-539
HT-29 = test system: HT-29
LOX IMVI = test system: LOX IMVI
CAKI-1 = test system: CAKI-1

Measured: GI50

CCOC(=O)C(NO)C(Sc1ccccc1)c1ccc(OC)cc1 (stereo not drawn)
inactive: NCI-H23 > 100 µM | SNB-75 55.5 µM | COLO 205 35.3 µM | TK-10 > 100 µM | SF-295 > 100 µM | SK-OV-3 > 100 µM | UO-31 68.5 µM | IGROV-1 > 100 µM | NCI-H226 81.8 µM | SK-MEL-2 > 100 µM | SN12C > 100 µM | M14 > 100 µM | SF-539 > 100 µM | HT-29 > 100 µM | LOX IMVI > 100 µM

COC(=O)C1=C(C(=O)OC)C2(C)OC1C(=O)C21CC1 (stereo not drawn)
inactive: NCI-H23 22 µM | SNB-75 28.9 µM | CAKI-1 18.6 µM | COLO 205 24.1 µM | TK-10 > 10 µM | SF-295 44 µM | SK-OV-3 > 100 µM | UO-31 79.6 µM | IGROV-1 23.2 µM | NCI-H226 > 100 µM | SK-MEL-2 > 100 µM | SN12C 22.9 µM | M14 15.3 µM | SF-539 20.7 µM | HT-29 18.1 µM | LOX IMVI 18.8 µM

COc1ccc(C(=O)C(C(=O)C(=O)Nc2ccc(Cl)c(Cl)c2)c2ccc(OC)cc2)cc1 (stereo not drawn)
inactive: NCI-H23 > 100 µM | SNB-75 57.5 µM | CAKI-1 > 100 µM | TK-10 > 100 µM | SF-295 > 100 µM | UO-31 > 100 µM | IGROV-1 > 100 µM | NCI-H226 > 100 µM | SK-MEL-2 > 100 µM | SN12C > 100 µM | M14 > 100 µM | SF-539 > 100 µM | HT-29 > 100 µM | LOX IMVI > 100 µM

O=C1CCN2C(=Nc3cccc4cccc2c34)N1
inactive: NCI-H23 > 100 µM | SNB-75 76.9 µM | COLO 205 > 100 µM | TK-10 > 100 µM | SK-OV-3 > 100 µM | UO-31 73.8 µM | IGROV-1 > 100 µM | NCI-H226 > 100 µM | SN12C > 100 µM | M14 > 100 µM | SF-539 > 100 µM | HT-29 > 100 µM | LOX IMVI > 100 µM

Cc1ccc(C2=Nc3ccccc3SC(c3cccc4c3OCO4)C2)cc1 (stereo not drawn)
inactive: NCI-H23 16.7 µM | SNB-75 7.94 µM | CAKI-1 16.1 µM | COLO 205 18.3 µM | TK-10 21.2 µM | SF-295 18.7 µM | SK-OV-3 35.8 µM | UO-31 14.1 µM | IGROV-1 16.7 µM | NCI-H226 18.1 µM | SK-MEL-2 20.3 µM | SN12C 19.5 µM | M14 18 µM | SF-539 20 µM | HT-29 16.9 µM | LOX IMVI 16.6 µM

CCOc1cc2cnc3c4cc(OC)c(OC)cc4ccc3c2cc1OC
inactive: NCI-H23 > 100 µM | SNB-75 > 100 µM | CAKI-1 > 100 µM | COLO 205 4.92 µM | TK-10 > 100 µM | SF-295 26.4 µM | SK-OV-3 > 100 µM | UO-31 > 100 µM | IGROV-1 > 100 µM | NCI-H226 > 100 µM | SK-MEL-2 69 µM | SN12C 30 µM | M14 > 100 µM | SF-539 > 100 µM | HT-29 > 100 µM | LOX IMVI 65 µM

O=C(O)C1(c2ccccc2)CCCNCC1 (stereo not drawn)
inactive: NCI-H23 > 100 µM | SNB-75 > 100 µM | CAKI-1 > 100 µM | COLO 205 > 100 µM | TK-10 > 100 µM | SF-295 > 100 µM | SK-OV-3 > 100 µM | UO-31 > 100 µM | IGROV-1 > 100 µM | NCI-H226 > 100 µM | SK-MEL-2 > 100 µM | SN12C > 100 µM | M14 > 100 µM | HT-29 > 100 µM | LOX IMVI > 100 µM

COc1cccc(-c2cc(O)c3ccccc3n2)c1
inactive: NCI-H23 7.52 µM | SNB-75 4.98 µM | COLO 205 4.93 µM | TK-10 > 100 µM | SF-295 2.81 µM | SK-OV-3 5.38 µM | UO-31 6.18 µM | IGROV-1 17.2 µM | NCI-H226 6.89 µM | SK-MEL-2 24.9 µM | SN12C 6.46 µM | M14 4.82 µM | SF-539 3.57 µM | HT-29 3.82 µM | LOX IMVI 5.18 µM

O=C(Cc1nc2ccccc2s1)C(=O)Nc1ccc(Cl)cc1Cl
inactive: NCI-H23 54 µM | SNB-75 47.4 µM | COLO 205 > 100 µM | TK-10 > 100 µM | SF-295 > 100 µM | SK-OV-3 > 100 µM | UO-31 > 100 µM | IGROV-1 > 100 µM | NCI-H226 77.6 µM | SK-MEL-2 > 100 µM | SN12C > 100 µM | M14 > 100 µM | SF-539 > 100 µM | HT-29 > 100 µM | LOX IMVI > 100 µM

Cc1[nH]c2ccccc2c1C1=NO/C(=N\O)C(c2c(C)[nH]c3ccccc23)C1 (stereo not drawn)
inactive: NCI-H23 62.1 µM | SNB-75 43.2 µM | CAKI-1 36.1 µM | COLO 205 19.7 µM | TK-10 54 µM | SF-295 36.7 µM | SK-OV-3 49.9 µM | UO-31 26.9 µM | IGROV-1 34.8 µM | NCI-H226 37.7 µM | SK-MEL-2 40 µM | SN12C 37 µM | M14 26.6 µM | SF-539 23.6 µM | HT-29 22.7 µM

CC(C)=CCC/C(C)=C/CC/C(C)=C/Cc1c(O)c2ccccc2oc1=O
inactive: NCI-H23 55.8 µM | SNB-75 > 100 µM | COLO 205 > 100 µM | TK-10 > 100 µM | SF-295 > 100 µM | SK-OV-3 > 100 µM | UO-31 48.8 µM | IGROV-1 > 100 µM | NCI-H226 47.1 µM | SK-MEL-2 > 100 µM | SN12C > 100 µM | M14 > 100 µM | SF-539 > 100 µM | HT-29 > 100 µM | LOX IMVI > 100 µM

CN(C)C(=S)/N=c1\ssc(=S)n1-c1ccccc1
inactive: NCI-H23 24.2 µM | SNB-75 17.4 µM | CAKI-1 19.2 µM | TK-10 16.9 µM | SF-295 24.2 µM | SK-OV-3 83.9 µM | UO-31 23.3 µM | IGROV-1 17 µM | NCI-H226 10.1 µM | SK-MEL-2 8.75 µM | SN12C 15.3 µM | M14 15 µM | SF-539 16.8 µM | HT-29 18.9 µM

COc1cc(N)c2[nH]c3c(C)ccc(C)c3c2c1
inactive: NCI-H23 > 10 µM | SNB-75 > 100 µM | CAKI-1 > 100 µM | COLO 205 > 100 µM | TK-10 > 100 µM | SF-295 > 100 µM | UO-31 > 100 µM | NCI-H226 > 100 µM | SK-MEL-2 > 100 µM | SN12C > 100 µM | M14 > 100 µM | SF-539 > 100 µM | HT-29 > 100 µM | LOX IMVI > 100 µM
